Measured values published in patent US20090227600A1, “4-(PYRAZINE-2-YL) -PYRROLIDINE -2-CARBOXYLIC ACID COMPOUNDS AND DERIVATIVES THEREOF AS HEPATITIS C VIRUS INHIBITORS” (priority 2004, published 2009).

Target: T1, HCV RNA Polymerase, recombinant NS5B with C-terminal 21 amino acid deletion, genotype 1a strain H77 (Hepatitis C virus genotype 1a, UniProt P27958)
T1 construct: fused on or other part: C-terminal 6His-tag
Experiment: In vitro HCV RNA-dependent RNA polymerase inhibition assay, genotype 1a C-terminally truncated (delta21) enzyme
Type: biochemical, HCV genotype 1a
Conditions: genotype 1a delta21 NS5B enzyme; read-out: IC50 in delta-21 1a enzyme inhibition assay
Description: Incorporation of [^33P]-GMP into RNA was followed by absorption of the biotin labelled RNA polymer by streptavidin containing SPA beads. A synthetic template consisting of biotinylated 13mer-oligoG hybridised to polyrC was used as a homopolymer substrate.
a) Genotype 1a C-Terminally Truncated (delta21) Enzyme
HCV RNA Polymerase [Recombinant NS5B with C-terminal 21 amino acid deletion and C-terminal 6His-tag (Ferrari et al. J. Virol, 73(2), 1999, 1649. ‘Characterization of soluble hepatitis C virus RNA-dependent RNA polymerase expressed in Escherichia coli.’) expressed in E. coli and purified to homogeneity] was added to 25 nM final concentration. Polymerase of genotype 1a was from strain H77 (Yanagi, M., Purcell, R. H., Emerson, S. U. & Bukh, J. (1997), Proceedings of the National Academy of Sciences, USA 94, 8738-8743) containing a sequence change from valine to isoleucine at position 180.
Reaction Conditions were 25 nM enzyme, 1.5 μg/ml oligo-rG13/poly-rC and 0.2 μCi α-^33P-GTP in 0.5 μM GTP (20 Ci/mMol), 20 mM Tris pH 7.5, 23 mM NaCl, 3 mM DTT, 5 mM MgCl2, 1 mM MnCl2.
Enzyme was diluted to 500 nM concentration in 20 mM Tris-HCl, pH 7.5, 25 mM NaCl and 3 mM DTT.
4× concentrated assay buffer mix was prepared using 1M Tris-HCl, pH7.5 (1 mL), 5M NaCl (0.25 mL), 1M DTT (0.12 mL) and Water (8.63 mL), Total 10 mL.
2× concentrated first reagent was prepared using 4× concentrated assay buffer mix (5 μL), 40 u/μL RNasin (0.1 μL), 20 μg/mL polyrC/biotinylated-oligoG (1.6 μL), 500 nM enzyme (1 μL) and Water (2.3 μL), Total 10 μl/well.
2× concentrated second reagent was prepared using 1M MgCl2 (0.1 μL), 1M MnCl2 (0.02 μL), 25 μM GTP (0.4 μL), α-[^33P]-GTP (10 μCi/μL, 0.02 μL) and water (9.5 μL), Total 10 μL/well.
The assay was set up using compound (1 μL in 100% DMSO), first reagent (10 μL), and second reagent (10 μL), Total 21 μL.
The reaction was performed in a U-bottomed, white, 96-well plate. The reaction was mixed on a plate-shaker, after addition of the Enzyme, and incubated for 1 h at 22° C. After this time, the reaction was stopped by addition of 60 μL 1.5 mg/ml streptavidin SPA beads (Amersham) in 0.1 M EDTA in PBS. The beads were incubated with the reaction mixture for 1 h at 22° C. after which 100 μL 0.1 M EDTA in PBS was added. The plate was sealed, mixed centrifuged and incorporated radioactivity determined by counting in a Trilux (Wallac) or Topcount (Packard) Scintillation Counter.
After subtraction of background levels without enzyme, any reduction in the amount of radioactivity incorporated in the presence of a compound, compared to that in the absence, was taken as a measure of the level of inhibition. Ten concentrations of compounds were tested in three- or fivefold dilutions. From the counts per minute, percentage of inhibition at highest concentration tested or IC50s for the compounds were calculated using GraFit 3, GraFit 4 or GraFit 5 (Erithacus Software Ltd.) software packages or a data evaluation macro for Excel based on XLFit Software (IDBS).

T1 sequence (P27958 2421-3011 V2599I, form open): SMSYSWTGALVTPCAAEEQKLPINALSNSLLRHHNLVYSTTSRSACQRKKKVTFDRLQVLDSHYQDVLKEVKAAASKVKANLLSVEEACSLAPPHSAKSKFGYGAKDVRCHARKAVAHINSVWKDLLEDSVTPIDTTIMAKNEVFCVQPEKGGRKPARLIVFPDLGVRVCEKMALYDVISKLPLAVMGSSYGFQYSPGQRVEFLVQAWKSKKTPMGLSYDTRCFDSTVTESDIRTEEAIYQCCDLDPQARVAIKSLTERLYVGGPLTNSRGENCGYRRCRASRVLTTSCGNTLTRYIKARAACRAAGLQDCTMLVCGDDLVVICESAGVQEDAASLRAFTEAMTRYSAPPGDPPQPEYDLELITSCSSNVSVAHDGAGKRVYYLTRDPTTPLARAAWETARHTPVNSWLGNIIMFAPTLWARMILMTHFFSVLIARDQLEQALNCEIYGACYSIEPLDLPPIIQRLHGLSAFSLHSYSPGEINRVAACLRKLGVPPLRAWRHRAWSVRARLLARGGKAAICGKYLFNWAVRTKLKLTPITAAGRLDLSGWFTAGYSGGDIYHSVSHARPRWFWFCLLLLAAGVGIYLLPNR

SMILES: COc1cc(C(=O)N2[C@@H](c3ncc(C)s3)[C@@H](c3cnccn3)C[C@@]2(Cc2cscn2)C(=O)O)ccc1C(C)(C)C (single isomer, unassigned; enantiomer a) [Example 16]
- IC50: < 150 nM
